According to patent US11554182B2, “Macrocyclic complexes of alpha-emitting radionuclides and their use in targeted radiotherapy of cancer” (CORNELL UNIVERSITY, priority 2017, dated 2023):

Experiment: In vivo biodistribution of ^225Ac complexes after intravenous injection
Set-up: species or system C57BL/6 mice
Description: In Vivo Biodistribution of ^225Ac Complexes of Macropa and DOTA. All experiments were approved by the Institutional Animal Care Committee (IACC) of the University of British Columbia and were performed in accordance with the Canadian Council on Animal Care Guidelines. A total of 9 female C57BL/6 mice (6-8 weeks old, 20-25 g) were used for the biodistribution study of each radiometal complex, n=3 for each time point.
Macropa (100 μL of a 1 mg/mL solution in NH4OAc) was diluted with 387 μL of NH4OAc (1 M, pH 7), and an aliquot (203 μL) of ^225Ac(NO3)3 (˜157 kBq) was then added; the pH of this solution was adjusted to 6.5-7 by the addition of 1 M NaOH (210 μL, trace metal grade). After 5 min at ambient temperature, the reaction solution was analyzed by TLC (0.4 M pH 4 sodium citrate as the eluent), which confirmed >95% radiochemical yield. The reaction was allowed to proceed overnight, and the radiochemical yield was again confirmed to be >95% the following morning. At this time, mice were anesthetized by 2% isoflurane, and approximately 100 μL (10-15 kBq) of the [^225Ac(macropa)]^+ complex were injected into the tail vein of each mouse. After injection, mice were allowed to recover and roam freely in their cages, and were euthanized by CO2 inhalation at 15 min, 1 h, or 5 h (n=3 at each time point) post-injection. Blood was collected by cardiac puncture and placed into an appropriate test tube for scintillation counting. Tissues collected included heart, liver, kidneys, lungs, small intestine, large intestine, brain, bladder, spleen, stomach, pancreas, bone, thyroid, tail, urine, and feces. Tissues were weighed and then counted with a calibrated gamma counter (Packard, Cobra II model 5002) using three energy windows: 60-120 keV (window A), 180-260 keV (window B), and 400-480 keV (window C). Counting was performed both immediately after sacrifice and after 7 days; counts were decay corrected from the time of injection and then converted to the percentage of injected dose (% ID) per gram of tissue (% ID/g). No differences were noted between the data; therefore, the biodistributions are reported using the data acquired immediately using window A.
The biodistribution studies of [^225Ac(DOTA)]^− and ^225Ac(NO3)3 were carried out as described above for [^225Ac(macropa)]^+, with the following modifications. [^225Ac(DOTA)]^− was prepared by adding ^225Ac(NO3)3 (338 μL, 1.1 MBq) to a solution of DOTA (100 μg, 20 mg/mL in H2O) in NH4OAc (467 μL, 0.15 M, pH 7). The pH of the solution was adjusted to 7 using NH4OAc (150 μL, 1 M, pH 7) and the solution was heated at 85° C. for 45 min. RCY>99% was confirmed by TLC as described above. [^225Ac(DOTA)]^− was diluted with saline to a final concentration of 0.05 MBq/100 μL, and 100 μL were injected into each mouse. ^225Ac(NO3)3 (˜58 μL, 0.4 MBq) was diluted and injected in the same manner as [^225Ac(DOTA)]^−. One mouse that was to be euthanized at the 5 h time point in the [^225Ac(DOTA)]^− study died shortly after injection. In the same manner, one mouse that was to be euthanized at the 1 h time point in the ^225Ac(NO3)3 study died.
The in vivo stability [^225Ac(macropa)]^+ was examined by comparing its biodistribution to those of ^225Ac(NO3)3 and [^225Ac(DOTA)]^−. C57BL/6 mice were injected via tail vein with 10-50 kBq of each radiometal complex and were sacrificed after 15 min, 1 h, or 5 h. The amount of ^225Ac retained in each organ was quantified by gamma counting and reported as the percent of injected dose per gram of tissue (% ID/g). The results of these studies are compiled in Tables 1-3. Inadequate stability of an ^225Ac complex leading to the loss of radioisotope in vivo is manifested by the accumulation of ^225Ac in the liver, spleen, and bone of mice.^[11,12,32] […] The biodistribution profile of [^225Ac(macropa)]^+ (FIG. 3B) differs markedly from that of ^225Ac(NO3)3. […]

[1] = 15 min after i.v. injection, energy window A (60-120 keV)
[2] = 15 min after i.v. injection, energy window B (180-260 keV)
[3] = 15 min after i.v. injection, energy window C (400-480 keV)
[4] = 1 h after i.v. injection, energy window A (60-120 keV)
[5] = 1 h after i.v. injection, energy window B (180-260 keV)
[6] = 1 h after i.v. injection, energy window C (400-480 keV)
[7] = 5 h after i.v. injection, energy window A (60-120 keV)
[8] = 5 h after i.v. injection, energy window B (180-260 keV)

O=C([O-])CN1CCN(CC(=O)[O-])CCN(CC(=O)[O-])CCN(CC(=O)[O-])CC1.[225Ac+3] [[^225Ac(DOTA)]^−]
% ID/g in bladder [1]: 48.2703 % ID/g | % ID/g in blood [1]: 5.2881 % ID/g | % ID/g in bone (femur + joint) [1]: 2.6298 % ID/g | % ID/g in brain [1]: 0.2655 % ID/g | % ID/g in feces [1]: 6.2730 % ID/g | % ID/g in heart [1]: 2.3335 % ID/g | % ID/g in kidneys [1]: 27.6566 % ID/g | % ID/g in large intestines [1]: 2.3348 % ID/g | % ID/g in liver [1]: 2.2520 % ID/g | % ID/g in lungs [1]: 5.7556 % ID/g | % ID/g in pancreas [1]: 1.5090 % ID/g | % ID/g in small intestines [1]: 2.6370 % ID/g | % ID/g in spleen [1]: 2.5905 % ID/g | % ID/g in stomach [1]: 2.7440 % ID/g | % ID/g in tail [1]: 8.8606 % ID/g | % ID/g in thyroids [1]: −5.7725 % ID/g | % ID/g in urine [1]: 1467.9186 % ID/g | % ID/g in bladder [2]: 54.4696 % ID/g | % ID/g in blood [2]: 5.6357 % ID/g | % ID/g in bone (femur + joint) [2]: 3.0357 % ID/g | % ID/g in brain [2]: 0.2735 % ID/g | % ID/g in feces [2]: 1.0222 % ID/g | % ID/g in heart [2]: 2.7276 % ID/g | % ID/g in kidneys [2]: 28.0858 % ID/g | % ID/g in large intestines [2]: 2.5365 % ID/g | % ID/g in liver [2]: 2.1817 % ID/g | % ID/g in lungs [2]: 6.0147 % ID/g | % ID/g in pancreas [2]: 1.4929 % ID/g | % ID/g in small intestines [2]: 2.5009 % ID/g | % ID/g in spleen [2]: 2.9076 % ID/g | % ID/g in stomach [2]: 2.7311 % ID/g | % ID/g in tail [2]: 9.4746 % ID/g | % ID/g in thyroids [2]: 1.6601 % ID/g | % ID/g in urine [2]: 1635.4394 % ID/g | % ID/g in bladder [3]: 76.0987 % ID/g | % ID/g in blood [3]: 7.2941 % ID/g | % ID/g in bone (femur + joint) [3]: 4.4224 % ID/g | % ID/g in brain [3]: 0.1588 % ID/g | % ID/g in feces [3]: 1.5693 % ID/g | % ID/g in heart [3]: 2.5579 % ID/g | % ID/g in kidneys [3]: 40.4489 % ID/g | % ID/g in large intestines [3]: 3.8419 % ID/g | % ID/g in liver [3]: 2.9046 % ID/g | % ID/g in lungs [3]: 7.3872 % ID/g | % ID/g in pancreas [3]: 1.0290 % ID/g | % ID/g in small intestines [3]: 3.8916 % ID/g | % ID/g in spleen [3]: 1.5598 % ID/g | % ID/g in stomach [3]: 3.2425 % ID/g | % ID/g in tail [3]: 13.4731 % ID/g | % ID/g in thyroids [3]: −109.5394 % ID/g | % ID/g in urine [3]: 2691.0615 % ID/g | % ID/g in bladder [4]: 4.7351 % ID/g | % ID/g in blood [4]: 0.1144 % ID/g | % ID/g in bone (femur + joint) [4]: 0.4487 % ID/g | % ID/g in brain [4]: 0.0224 % ID/g | % ID/g in feces [4]: 0.2035 % ID/g | % ID/g in heart [4]: 0.1012 % ID/g | % ID/g in kidneys [4]: 1.4020 % ID/g | % ID/g in large intestines [4]: 0.1229 % ID/g | % ID/g in liver [4]: 0.2715 % ID/g | % ID/g in lungs [4]: 0.1555 % ID/g | % ID/g in pancreas [4]: 0.0743 % ID/g | % ID/g in small intestines [4]: 1.7207 % ID/g | % ID/g in spleen [4]: 0.0938 % ID/g | % ID/g in stomach [4]: 0.1367 % ID/g | % ID/g in tail [4]: 0.8091 % ID/g | % ID/g in thyroids [4]: 2.3564 % ID/g | % ID/g in urine [4]: 158.6102 % ID/g | % ID/g in bladder [5]: 4.7141 % ID/g | % ID/g in blood [5]: 0.1127 % ID/g | % ID/g in bone (femur + joint) [5]: 0.4126 % ID/g | % ID/g in brain [5]: 0.0248 % ID/g | % ID/g in feces [5]: 0.2349 % ID/g | % ID/g in heart [5]: 0.1378 % ID/g | % ID/g in kidneys [5]: 1.2560 % ID/g | % ID/g in large intestines [5]: 0.0813 % ID/g | % ID/g in liver [5]: 0.2672 % ID/g | % ID/g in lungs [5]: 0.1946 % ID/g | % ID/g in pancreas [5]: 0.0746 % ID/g | % ID/g in small intestines [5]: 1.8809 % ID/g | % ID/g in spleen [5]: 0.0825 % ID/g | % ID/g in stomach [5]: 0.1379 % ID/g | % ID/g in tail [5]: 0.8973 % ID/g | % ID/g in thyroids [5]: 2.6514 % ID/g | % ID/g in urine [5]: 159.1628 % ID/g | % ID/g in bladder [6]: 6.9149 % ID/g | % ID/g in blood [6]: 0.1102 % ID/g | % ID/g in bone (femur + joint) [6]: 0.5654 % ID/g | % ID/g in brain [6]: 0.0380 % ID/g | % ID/g in feces [6]: 0.4091 % ID/g | % ID/g in heart [6]: 0.2857 % ID/g | % ID/g in kidneys [6]: 1.4787 % ID/g | % ID/g in large intestines [6]: 0.1381 % ID/g | % ID/g in liver [6]: 0.2841 % ID/g | % ID/g in lungs [6]: 0.2551 % ID/g | % ID/g in pancreas [6]: 0.1730 % ID/g | % ID/g in small intestines [6]: 2.0201 % ID/g | % ID/g in spleen [6]: 0.2228 % ID/g | % ID/g in stomach [6]: 0.1720 % ID/g | % ID/g in tail [6]: 1.0280 % ID/g | % ID/g in thyroids [6]: 3.5247 % ID/g | % ID/g in urine [6]: 177.6788 % ID/g | % ID/g in bladder [7]: 0.3551 % ID/g | % ID/g in blood [7]: 0.0140 % ID/g | % ID/g in bone (femur + joint) [7]: 0.2063 % ID/g | % ID/g in brain [7]: 0.0213 % ID/g | % ID/g in feces [7]: 5.5318 % ID/g | % ID/g in heart [7]: 0.0664 % ID/g | % ID/g in kidneys [7]: 0.6172 % ID/g | % ID/g in large intestines [7]: 0.2026 % ID/g | % ID/g in liver [7]: 0.1010 % ID/g | % ID/g in lungs [7]: 0.0390 % ID/g | % ID/g in pancreas [7]: 0.0677 % ID/g | % ID/g in small intestines [7]: 0.0967 % ID/g | % ID/g in spleen [7]: 0.1380 % ID/g | % ID/g in stomach [7]: 0.0852 % ID/g | % ID/g in tail [7]: 0.3057 % ID/g | % ID/g in thyroids [7]: 3.6425 % ID/g | % ID/g in urine [7]: 1.1612 % ID/g | % ID/g in bladder [8]: 0.7521 % ID/g | % ID/g in blood [8]: 0.0292 % ID/g | % ID/g in bone (femur + joint) [8]: 0.1478 % ID/g | % ID/g in brain [8]: 0.0513 % ID/g | % ID/g in feces [8]: 3.3534 % ID/g | % ID/g in heart [8]: 0.0879 % ID/g | % ID/g in kidneys [8]: 0.6718 % ID/g | % ID/g in large intestines [8]: 0.2527 % ID/g | % ID/g in liver [8]: 0.2712 % ID/g | % ID/g in lungs [8]: 0.1289 % ID/g | % ID/g in pancreas [8]: 0.1266 % ID/g | % ID/g in small intestines [8]: 0.2065 % ID/g | % ID/g in spleen [8]: 0.0834 % ID/g | % ID/g in stomach [8]: 0.1789 % ID/g | % ID/g in tail [8]: 0.1634 % ID/g | % ID/g in thyroids [8]: 16.2357 % ID/g | % ID/g in urine [8]: 3.6967 % ID/g
